Test results from article PMC9490060, “Synthesis and evaluation of anticancer activity of quillaic acid derivatives: A cell cycle arrest and apoptosis inducer through NF-κB and MAPK pathways” (Frontiers in Chemistry, 2022).

How the values were obtained:
[1] = system: HCT116 (human colorectal cancer cell line); experiment: MTT anti-proliferative assay, HCT116; type: cell-based; details: Homo sapiens, HCT-116, 48 h incubation, means ± SD, n = 3
Text: (§1) The anti-proliferative activities against five human cancer cell lines, including HCT116 (human colorectal cancer cell line), MCF-7 (human breast cancer cell line), SW620 (human colorectal cancer cell line), BEL7402 (human hepatocellular carcinoma cell line), and HepG2 (human hepatocellular carcinoma cell line) were established for all the target compounds using the MTT assay.
(§2) The propidium iodide (PI) and Annexin V-FITC apoptosis detection kit were purchased from Invitrogen (Eugene, OR, United States). 3-(4,5-Dimethylthiazol-2-yl)-2,5-diphenyl-2H-tetrazolium bromide (MTT) was purchased from Sigma-Aldrich Co. (St. Louis, MO, United States). All human cell lines were used in this study, colorectal cancer cell HCT116, colorectal cancer cell SW620, breast cancer cell MCF-7, liver hepatocellular carcinoma cell BEL7402, liver hepatocellular carcinoma HepG2 and normal liver cell L02 were initially purchased from American Type Culture Collection (ATCC, Manassas, VA, United States). RPMI-1640 media, Dulbecco’s modified Eagle’s medium (DMEM), and foetal bovine serum (FBS) were provided from Gibco Company (Grand Island, NY, United States). Cell line MCF-7 and HepG2 were cultivated in DMEM containing 10% (v/v) heat-inactivated FBS, 100 units/ml penicillin and […] streptomycin (Grand Island, NY, United States). Cell lines HCT116, BEL7402, SW620, and L02 were cultivated in RPMI 1640 medium containing 10% (v/v) heat-inactivated FBS, 100 units/ml penicillin, and […] streptomycin. The cells were incubated at 37°C under a 5% CO2 and 90% relative humidity (RH) atmosphere.
(§3) Stock solutions were prepared by diluting target compounds in DMSO at concentrations (1.25, 2.5, 5, and 10 mM). The stock solution was then diluted (1.25, 2.5, 5, and 10 μM) with culture medium, and the concentration of DMSO was controlled not to exceed 0.1%.
(§4) Place the cells in a 96-well plate at an appropriate density to ensure exponential growth (1 × 10^4–1.2×10^4 cells per well) throughout the experiment, and then allow the cells to adhere for 24 h. The cells were then treated with continuous concentrations of each compound (1.25, 2.5, 5, and 10 μM) for 48 h. After 48 h of incubation, 15 μl of MTT solution was added to each well, and the final concentration was 2 mg/ml. Then incubate for another 4 h. After incubation, remove the MTT solution and add […] of DMSO to each well for staining. Shake vigorously for 10 min at room temperature to ensure complete dissolution. The optical density (OD) was read on a microplate reader (ELx 800, BioTek, Highland Park, Winooski, VT, United States) with a wavelength of 492 nm, and then the data was analyzed.

[2] = system: SW620 (human colorectal cancer cell line); experiment: MTT anti-proliferative assay, SW620; type: cell-based; details: Homo sapiens, SW-620, 48 h incubation, means ± SD, n = 3
Text: as §1, §2, §3, §4

[3] = system: BEL7402 (human hepatocellular carcinoma cell line); experiment: MTT anti-proliferative assay, BEL7402; type: cell-based; details: Homo sapiens, Bel-7402, 48 h incubation, means ± SD, n = 3
Text: as §1, §2, §3, §4

[4] = system: HepG2 (human hepatocellular carcinoma cell line); experiment: MTT anti-proliferative assay, HepG2; type: cell-based; details: Homo sapiens, HepG2, 48 h incubation, means ± SD, n = 3
Text: as §1, §2, §3, §4

[5] = system: MCF-7 (human breast cancer cell line); experiment: MTT anti-proliferative assay, MCF-7; type: cell-based; details: Homo sapiens, MCF7, 48 h incubation, means ± SD, n = 3
Text: as §1, §2, §3, §4

IC50 [1] [µM]	IC50 [2] [µM]	IC50 [3] [µM]	IC50 [4] [µM]	IC50 [5] [µM]	melting point [°C]	SMILES
> 10	> 10	> 10	> 10	> 10	204 to 206	Cc1ccc(-n2cc(COC(=O)[C@]34CCC(C)(C)C[C@H]3C3=CC[C@@H]5[C@@]6(C)CC[C@H](O)[C@@](C)(C=O)[C@@H]6CC[C@@]5(C)[C@]3(C)C[C@H]4O)nn2)cc1 [Compound A9, (1-(p-tolyl)-1H-1,2,3-triazol-4-yl)methyl (4aR,5R,6aS,6bR,8aR,9S,10S,12aR,12bR,14bS)-9-formyl-5,10-dihydroxy-2,2,6a,6b,9,12a-hexamethyl-1,3,4,5,6,6a,6b,7,8,8a,9,10,11,12,12a,12b,13,14b-octadecahydropicene-4a (2H)-carboxylate]
> 10	> 10	> 10	> 10	> 10	193 to 194	CC1(C)CC[C@]2(C(=O)OCc3cn(-c4ccc([N+](=O)[O-])cc4)nn3)[C@H](O)C[C@]3(C)C(=CC[C@@H]4[C@@]5(C)CC[C@H](O)[C@@](C)(C=O)[C@@H]5CC[C@]43C)[C@@H]2C1 [Compound A10, (1-(4-nitrophenyl)-1H-1,2,3-triazol-4-yl)methyl (4aR,5R,6aS,6bR,8aR,9S,10S,12aR,12bR,14bS)-9-formyl-5,10-dihydroxy-2,2,6a,6b,9,12a-hexamethyl-1,3,4,5,6,6a,6b,7,8,8a,9,10,11,12,12a,12b,13,14b-octadecahydropicene-4a (2H)-carboxylate]
> 10	> 10	> 10	> 10	> 10	130 to 132	CC1(C)CC[C@]2(C(=O)OCc3nnc(-c4ccccc4)o3)[C@H](O)C[C@]3(C)C(=CC[C@@H]4[C@@]5(C)CC[C@H](O)[C@@](C)(C=O)[C@@H]5CC[C@]43C)[C@@H]2C1 [Compound B1, (5-phenyl-1,3,4-oxadiazol-2-yl)methyl (4aR,5R,6aS,6bR,8aR,9S,10S,12aR,12bR,14bS)-9-formyl-5,10-dihydroxy-2,2,6a,6b,9,12a-hexamethyl-1,3,4,5,6,6a,6b,7,8,8a,9,10,11,12,12a,12b,13,14b-octadecahydropicene-4a (2H)-carboxylate]
5.01 ± 1.12	8.18 ± 1.85	> 10	> 10	> 10	132 to 134	CC1(C)CC[C@]2(C(=O)OCc3nnc(-c4ccc(Cl)cc4)o3)[C@H](O)C[C@]3(C)C(=CC[C@@H]4[C@@]5(C)CC[C@H](O)[C@@](C)(C=O)[C@@H]5CC[C@]43C)[C@@H]2C1 [Compound B3, (5-(4-chlorophenyl)-1,3,4-oxadiazol-2-yl)methyl (4aR,5R,6aS,6bR,8aR,9S,10S,12aR,12bR,14bS)-9-formyl-5,10-dihydroxy-2,2,6a,6b,9,12a-hexamethyl-1,3,4,5,6,6a,6b,7,8,8a,9,10,11,12,12a,12b,13,14b-octadecahydropicene-4a (2H)-carboxylate]
3.65 ± 1.06	7.23 ± 1.56	9.15 ± 2.21	8.38 ± 2.22	> 10	126 to 128	COc1ccc(-c2nnc(COC(=O)[C@]34CCC(C)(C)C[C@H]3C3=CC[C@@H]5[C@@]6(C)CC[C@H](O)[C@@](C)(C=O)[C@@H]6CC[C@@]5(C)[C@]3(C)C[C@H]4O)o2)cc1 [Compound B4, (5-(4-methoxyphenyl)-1,3,4-oxadiazol-2-yl)methyl (4aR,5R,6aS,6bR,8aR,9S,10S,12aR,12bR,14bS)-9-formyl-5,10-dihydroxy-2,2,6a,6b,9,12a-hexamethyl-1,3,4,5,6,6a,6b,7,8,8a,9,10,11,12,12a,12b,13,14b-octadecahydropicene-4a (2H)-carboxylate]
3.81 ± 1.23	> 10	7.36 ± 1.45	8.45 ± 2.15	> 10	136 to 138	COc1cc(-c2nnc(COC(=O)[C@]34CCC(C)(C)C[C@H]3C3=CC[C@@H]5[C@@]6(C)CC[C@H](O)[C@@](C)(C=O)[C@@H]6CC[C@@]5(C)[C@]3(C)C[C@H]4O)o2)cc(OC)c1OC [Compound B5, (5-(3,4,5-trimethoxyphenyl)-1,3,4-oxadiazol-2-yl)methyl (4aR,5R,6aS,6bR,8aR,9S,10S,12aR,12bR,14bS)-9-formyl-5,10-dihydroxy-2,2,6a,6b,9,12a-hexamethyl-1,3,4,5,6,6a,6b,7,8,8a,9,10,11,12,12a,12b,13,14b-octadecahydropicene-4a (2H)-carboxylate]
3.65 ± 1.22	> 10	> 10	> 10	> 10	140 to 142	CC1(C)CC[C@]2(C(=O)OCc3nnc(-c4ccc([N+](=O)[O-])cc4)o3)[C@H](O)C[C@]3(C)C(=CC[C@@H]4[C@@]5(C)CC[C@H](O)[C@@](C)(C=O)[C@@H]5CC[C@]43C)[C@@H]2C1 [Compound B6, (5-(4-nitrophenyl)-1,3,4-oxadiazol-2-yl)methyl (4aR,5R,6aS,6bR,8aR,9S,10S,12aR,12bR,14bS)-9-formyl-5,10-dihydroxy-2,2,6a,6b,9,12a-hexamethyl-1,3,4,5,6,6a,6b,7,8,8a,9,10,11,12,12a,12b,13,14b-octadecahydropicene-4a (2H)-carboxylate]
4.43 ± 1.34	6.12 ± 1.56	> 10	> 10	> 10	174 to 176	CC1(C)CC[C@]2(C(=O)OCCn3ncn(-c4ccccc4)c3=O)[C@H](O)C[C@]3(C)C(=CC[C@@H]4[C@@]5(C)CC[C@H](O)[C@@](C)(C=O)[C@@H]5CC[C@]43C)[C@@H]2C1 [Compound C1, 2-(5-oxo-4-phenyl-4,5-dihydro-1H-1,2,4-triazol-1-yl)ethyl (4aR,5R,6aS,6bR,8aR,9S,10S,12aR,12bR,14bS)-9-formyl-5,10-dihydroxy-2,2,6a,6b,9,12a-hexamethyl-1,3,4,5,6,6a,6b,7,8,8a,9,10,11,12,12a,12b,13,14b-octadecahydropicene-4a (2H)-carboxylate]
> 10	> 10	> 10	> 10	> 10	176 to 178	CC1(C)CC[C@]2(C(=O)OCCn3ncn(-c4ccc(F)cc4)c3=O)[C@H](O)C[C@]3(C)C(=CC[C@@H]4[C@@]5(C)CC[C@H](O)[C@@](C)(C=O)[C@@H]5CC[C@]43C)[C@@H]2C1 [Compound C2, 2-(4-(4-fluorophenyl)-5-oxo-4,5-dihydro-1H-1,2,4-triazol-1-yl)ethyl (4aR,5R,6aS,6bR,8aR,9S,10S,12aR,12bR,14bS)-9-formyl-5,10-dihydroxy-2,2,6a,6b,9,12a-hexamethyl-1,3,4,5,6,6a,6b,7,8,8a,9,10,11,12,12a,12b,13,14b-octadecahydropicene-4a (2H)-carboxylate]
3.11 ± 1.02	7.11 ± 1.54	> 10	> 10	> 10	166 to 168	CC1(C)CC[C@]2(C(=O)OCCn3ncn(-c4ccc(Cl)cc4)c3=O)[C@H](O)C[C@]3(C)C(=CC[C@@H]4[C@@]5(C)CC[C@H](O)[C@@](C)(C=O)[C@@H]5CC[C@]43C)[C@@H]2C1 [Compound C3, 2-(4-(4-chlorophenyl)-5-oxo-4,5-dihydro-1H-1,2,4-triazol-1-yl)ethyl (4aR,5R,6aS,6bR,8aR,9S,10S,12aR,12bR,14bS)-9-formyl-5,10-dihydroxy-2,2,6a,6b,9,12a-hexamethyl-1,3,4,5,6,6a,6b,7,8,8a,9,10,11,12,12a,12b,13,14b-octadecahydropicene-4a (2H)-carboxylate]
